Read-outs that look alike come from different tables or passages of the source.

The test system of assay [1] is H1299 lung cancer cells.
Description: Construction of Ad/gBax. […] This bicistronic vector as modified combined the two expression cassettes of the Tet-Off system (BD Clontech, San Francisco, Calif., USA) into a single vector (FIG. 28). […] The second cassette contained the cDNA of the GFP/Bax fusion protein under the control of a compound promoter consisting of TRE and the minimal immediate early promoter of CMV. GFP was included to facilitate the selection of recombinant virus and the detection of expression products.
Assay [2] relates to MDA-MB-231. Briefly: IC50 of chemotherapeutic agents and Ad/gTRAIL, parental cells. The assay is classed as cell-based, human. The method, then: Cell Lines and Reagents. Human breast cancer cell lines MCF7, MDA-MB-231, MDA-MB-453, and MDA-MB-468 were grown in RPMI 1640 medium supplemented with 10% heat-inactivated fetal bovine serum, and antibiotics, and glutamine. Immortalized nontransformed breast epithelial cell lines MCF10A and MCF10F and normal human mammary epithelial cells (NHMEC) were purchased from Clonetics (San Diego, Calif.). Primary normal human mammary epithelial cells (PNHMEC) isolated from normal breast tissue (Stampfer and Yaswen, 1994) were provided by Dr. Yinhua Yu (The University of Texas M. D. Anderson Cancer Center). Doxorubicin-resistant MDA-MB-231 cells were obtained through the stepwise exposure of the parental cells to doxorubicin. […] The residual surviving cells were then allowed to grow in fresh medium. When these residual cells reached 70-80% confluence in the plate, they were treated again with the same concentration of doxorubicin. After this cycle was repeated several times, the concentration of doxorubicin was increased multiple times followed by the regrowth of cells. […] Other agents used in these experiments included gemcitabine (Eli Lilly and Co., Indianapolis, Ind.), vinorelbine (Pierre Fabre, Idron 64320, France), paclitaxel (Bristol-Myers Squibb Co., Princeton, N.J.), irinotecan (Pharmacia & Upjohn Co., Kalamazoo, Mich.), floxuridine (Ben Venue Labs, Inc., Bedford, Ohio), and TRAIL protein (R & D Systems, Minneapolis, Minn.).
Assays. Cell viability, flow cytometry, and Western blot analysis were performed as described in previous examples. See also Gu et al., 2000 and Kagawa et al., 2001. Biochemical analysis, using β-galactosidase was determined as dexcribed in Example 1. For Western analysis anti-caspase-8 (R&D systems, Minneapolis, Minn.), anti-caspase-3 (BD PharMingen, San Diego, Calif.), anti-PARP (BD PharMingen), anti-GFP (Clontech Inc., Palo Alto, Calif.), and anti-hTRAIL (Alexis, San Diego, Calif.) antibodies were used. Apoptosis in tumors was assessed by in situ TUNEL staining as decribed in Example 3.
Statistical Analysis. Differences among the treatment groups were assessed as described in previous examples. Survival was assessed using the Kaplan-Meier method. The drug concentration that inhibited cells growth by 50% (IC50) was calculated by CurveExpert 1.3 software (Starkville, Miss.).

In assay [3] the test system is 231/ADR. In words: IC50 of chemotherapeutic agents and Ad/gTRAIL, doxorubicin-resistant cells. Format: cell-based, human. As to conditions: for IC50: Homo sapiens. The method, then: Cell Lines and Reagents. […] Immortalized nontransformed breast epithelial cell lines MCF10A and MCF10F and normal human mammary epithelial cells (NHMEC) were purchased from Clonetics (San Diego, Calif.). […] Doxorubicin-resistant MDA-MB-231 cells were obtained through the stepwise exposure of the parental cells to doxorubicin. […] The residual surviving cells were then allowed to grow in fresh medium. When these residual cells reached 70-80% confluence in the plate, they were treated again with the same concentration of doxorubicin. After this cycle was repeated several times, the concentration of doxorubicin was increased multiple times followed by the regrowth of cells.
Assays. Cell viability, flow cytometry, and Western blot analysis were performed as described in previous examples. […] For Western analysis anti-caspase-8 (R&D systems, Minneapolis, Minn.), anti-caspase-3 (BD PharMingen, San Diego, Calif.), anti-PARP (BD PharMingen), anti-GFP (Clontech Inc., Palo Alto, Calif.), and anti-hTRAIL (Alexis, San Diego, Calif.) antibodies were used.
Statistical Analysis. Differences among the treatment groups were assessed as described in previous examples. Survival was assessed using the Kaplan-Meier method.

The test system of assay [4] is lung metastasis derived from breast cancer cells 231/ADR. In words: Lung metastatic tumor model, aerosolized Ad/gTRAIL with paclitaxol. Format: in vivo, nude mice. Conditions: day 35 after starting treatment.
Protocol: The aerosol vector administration are the following: adenovirus of 1×10^12 particles was diluted in PBS to a final volume of Iml and was mixed with 500 μl (5 mg) of protamine. […] The complex was placed into the nebulizer chamber. The aerosol from the nebulizer was passed through a sealed plastic cage that housed the mice. The exposure required approximately 50 minutes, during which time the mice were allowed to move freely about the cage.
The test system of assay [5] is DLD1/TRAIL-R. In words: Sensitizing TRAIL-resistant cells to Ad/gTRAIL by chemotherapeutic agents. Conditions: Ad/gTRAIL 1000 viral particles/cell; 96 h.
Protocol: Chemotherapeutic agents concentrations are shown on the bottom of each graph. […] Cell viability was determined at 96 h after treatment. Levels are mean+/−SD of two quadruplet assays. […] Cells were treated with adenovector at 1000 moi (vp), 5-FU 50 μm and 1.25 μm MMC. In combination group, the dose were the same as the single agent group. Cells were harvested at 96 h after treatment and cell lysate was used for Western blot analysis.
Assay [6] has as its system lung. In words: Reporter gene expression in lung after aerosolized vector. Format: in vivo, mice. As to conditions: protamine 1 mg/ml, hydrocortisone 250 ng/ml. The method, then:
The aerosol vector administration are the following: adenovirus of 1×10^12 particles was diluted in PBS to a final volume of Iml and was mixed with 500 μl (5 mg) of protamine. The Protamine-adenovirus complex was mixed with 5 ml hydrocortisone (concentration of 250 ng/ml in H2O) after incubating 10 min at room temperature. The complex was placed into the nebulizer chamber. The aerosol from the nebulizer was passed through a sealed plastic cage that housed the mice. The exposure required approximately 50 minutes, during which time the mice were allowed to move freely about the cage.
Treatment of lung metastasis by aerosolized vector administration was also tested. […] Subsequent aerosol administration of adenovectors will contain protamine and hydrocortisone in the vector solution.

Assay [7] has as its system MDA-MB-231, MDA-MB-468, MDA-MB-453 and MCF7 cells. In words: Cell viability after recombinant TRAIL protein. The assay is classed as cell-based, human. How it is done:
Cell Lines and Reagents. Human breast cancer cell lines MCF7, MDA-MB-231, MDA-MB-453, and MDA-MB-468 were grown in RPMI 1640 medium supplemented with 10% heat-inactivated fetal bovine serum, and antibiotics, and glutamine. Immortalized nontransformed breast epithelial cell lines MCF10A and MCF10F and normal human mammary epithelial cells (NHMEC) were purchased from Clonetics (San Diego, Calif.). Primary normal human mammary epithelial cells (PNHMEC) isolated from normal breast tissue (Stampfer and Yaswen, 1994) were provided by Dr. Yinhua Yu (The University of Texas M. D. Anderson Cancer Center). Doxorubicin-resistant MDA-MB-231 cells were obtained through the stepwise exposure of the parental cells to doxorubicin. In brief, the parental MDA-MB-231 cells were treated with doxorubicin (Ben Venue Labs, Inc., Bedford, Ohio) at concentration of 2 μM (1.16 μg/ml, which is the IC80 of MDA-MB-231 cells). Most cells were killed after day 4 of treatment. The residual surviving cells were then allowed to grow in fresh medium. When these residual cells reached 70-80% confluence in the plate, they were treated again with the same concentration of doxorubicin. […]
To test whether these cells were similarly sensitive to soluble TRAIL protein, cells were treated with recombinant TRAIL protein at various concentrations up to 800 ng/ml. Cell viability was then determined at 24, 48, and 96 h after treatment. […]

[8] abbreviates: Homo sapiens, MDA-MB-231, read-out: IC50.

Turning to `CN(C)[C@@H]1C(O)=C(C(N)=O)C(=O)[C@@]2(O)C(O)=C3C(=O)c4c(O)cccc4[C@@](C)(O)[C@H]3C[C@@H]12` [Tc, tetracycline], the “concentration that started to inhibit GFP-Bax expression” value in assay [1] stood at 1 ng/mL.
For `CC(=O)O[C@H]1C(=O)[C@@]2(C)[C@H]([C@H](OC(=O)c3ccccc3)[C@]3(O)C[C@H](OC(=O)[C@H](O)[C@@H](NC(=O)c4ccccc4)c4ccccc4)C(C)=C1C3(C)C)[C@]1(OC(C)=O)CO[C@@H]1C[C@@H]2O` [Paclitexol, paclitaxel], the half-inhibitory concentration (IC50) in assay [2] (Homo sapiens, MDA-MB-231) was 3.46 nM; in assay [3] it was 16.9 nM. The “numbers of tumor nodules in the lung” value in assay [4] is reported as “dramatically reduced the numbers of tumor nodules”.
Take `O=c1[nH]c(=O)n([C@H]2C[C@H](O)[C@@H](CO)O2)cc1F` [Floxuridine, floxuridine]: the IC50 amounted to 100 nM in assay [2] (Homo sapiens, MDA-MB-231) and 4700 nM in assay [3]. The “sensitization of DLD1/TRAIL-R to Ad/gTRAIL (cell viability)” value (shortened to “sensitization of DLD1/TRAIL-R”) in assay [5] was “can be sensitized to Ad/gTRAIL”.
For `CCc1c2c(nc3ccc(OC(=O)N4CCC(N5CCCCC5)CC4)cc13)-c1cc3c(c(=O)n1C2)COC(=O)[C@]3(O)CC` [Irinotecan, irinotecan], the IC50 amounted to 1540 nM in assay [2] (Homo sapiens, MDA-MB-231) and 5940 nM in assay [3].
On to `O=c1[nH]cc(F)c(=O)[nH]1` [fluorouracil], for which the “sensitization of DLD1/TRAIL-R” value in assay [5] is on record as “can sensitize DLD1/TRAIL-R to Ad/gTRAIL at certain concentrations”.
For the molecule `C[C@]12CCC(=O)C=C1CC[C@@H]1[C@@H]2[C@@H](O)C[C@@]2(C)[C@H]1CC[C@]2(O)C(=O)CO` [hydrocortisone], the “reporter gene LacZ expression in lung” value in assay [6] is “dramatically increased”.
In the case of `Nc1ccn([C@@H]2O[C@H](CO)[C@@H](O)C2(F)F)c(=O)n1` [Gemcitabine, gemcitabine], the IC50 in assay [2] (setting [8]) came to 18.6 nM; in assay [3], 37 nM.
With protamine, in assay [6], the “reporter gene LacZ expression in lung” value is recorded as “dramatically increased”.
As for `COc1cccc2c1C(=O)c1c(O)c3c(c(O)c1C2=O)C[C@@](O)(C(=O)CO)C[C@@H]3O[C@H]1C[C@H](N)[C@H](O)[C@H](C)O1` [Doxorubicin, doxorubicin], the IC50 was 1140 nM in assay [2] (Homo sapiens, MDA-MB-231) and 97600 nM in assay [3]. Further, the IC80 in assay [2] (Homo sapiens, MDA-MB-231) was 2000 nM. Besides, the susceptibility to doxorubicin entry was “susceptible” in assay [2] (parental MDA-MB-231, 2 μM) and “resistant” in assay [3] (16 μM). Further, the “sensitization of DLD1/TRAIL-R” value in assay [5] was “can sensitize DLD1/TRAIL-R to Ad/gTRAIL at certain concentrations”.
`CO[C@@]12[C@H](COC(N)=O)C3=C(C(=O)C(C)=C(N)C3=O)N1C[C@@H]1N[C@@H]12` [mutamycin]: the “sensitization of DLD1/TRAIL-R” value in assay [5] is “can sensitize DLD1/TRAIL-R to Ad/gTRAIL at certain concentrations”.
For the molecule `CCC1=C[C@@H]2CN(C1)Cc1c([nH]c3ccccc13)[C@@](C(=O)OC)(c1cc3c(cc1OC)N(C)[C@H]1[C@@](O)(C(=O)OC)[C@H](OC(C)=O)[C@]4(CC)C=CCN5CC[C@]31[C@@H]54)C2` [Vinorelbine, vinorelbine], the IC50 in assay [2] (setting [8]) was 2.4 nM; in assay [3], 22.9 nM.

B1: TRAIL protein: recombinant soluble TRAIL protein (R & D Systems) (protein, UniProt P50591 39-281, looked up)
extracellular domain: TNELKQMQDKYSKSGIACFLKEDDSYWDPNDEESMNSPCWQVKWQLRQLVRKMILRTSEETISTVQEKQQNISPLVRERGPQRVAAHITGTRGRSNTLSSPNSKNEKALGRKINSWESSRSGHSFLSNLHLRNGELVIHEKGFYYIYSQTYFRFQEEIKENTKNDKQMVQYIYKYTSYPDPILLMKSARNSCWSKDAEYGLYSIYQGGIFELKENDRIFVSVTNEHLIDMDHEASFFGAFLVG
modifications: extracellular domain recombinant soluble
For B1, the “sensitivity to TRAIL protein (cell viability)” value in assay [7] (MDA-MB-231 and MDA-MB-468, up to 800 ng/ml, 24, 48, 96 h) is “sensitive”; in assay [7] (MDA-MB-453 and MCF7, 800 ng/ml) it was “resistant”.

As a reminder, the IC50 is the concentration at which inhibition is half-maximal. For orientation: IC80 means the concentration needed for an effect of 80%.

Values taken from patent publication US20030082722A1, “Method for amplifying expression from a cell specific promoter” (priority 2001, published 2003).
